Source: patent US5716994A, “Antitumor and antileukaemic substances, their preparation and pharmaceutical compositions containing them” (Rhone-Poulenc Rorer S.A., priority 1994, dated 1998)
Read-outs that look alike come from different tables or passages of the source.

What was measured:
[1] = tested on: Tubulin, derived from pig brain; conditions: for effect on the polymerization of tubulin (in words): increase in the latent period, decrease in the rate of polymerization, lower turbidity in the stationary state; for IC50: read-out: concentration which inhibits by 50% the polymerization of tubulin, tubulin 8.5 μM, 37° C., 30 minutes, product 0.8 to 16 μM
Source text: The assembly of tubulin into microtubules results in an increase in the turbidity observed at 350 nm with the aid of spectrophotometer.

[2] = tested on: murine leukaemia cell lines P388; conditions: p388 leukaemia cells
resistant lines P388/DOX = conditions: p388 leukaemia cells

| SMILES | effect on the polymerization of tubulin (in words) [1] | IC50 [1] | IC50 ([1]; listed as 3-(3-hydroxy-4-methoxybenzyl)-7-methylene-1-vinyl-2,3,3a,4,7,7a-hexahydroinden-4) | cytotoxicity [2] | cytotoxicity (resistant lines P388/DOX) |
| --- | --- | --- | --- | --- | --- |
| C=CC1CC(Cc2ccc(OC)c(O)c2)C2C(=O)C=CC(=C)C12 (stereo not drawn) [formula (I), 3-(3-hydroxy-4-methoxybenzyl)-7-methylene-1-vinyl-2,3,3a,4,7,7a-hexahydroinden-4-one] | inhibition of the polymerization of tubulin | < 5 nM | < 1 nM |  |  |
| C=CC1CC(Cc2ccc(OC)c(O)c2)c2c(O)ccc(C)c21 (stereo not drawn) [formula (II), 3-(3-hydroxy-4-methoxybenzyl)-4-hydroxy-7-methyl-1-vinylindan] | inhibition of the polymerization of tubulin |  |  | less than 1 μg/cm^3 | less than 1 μg/cm^3 |
